Measurements from ChEMBL document CHEMBL5653597, “CI-1033, an irreversible pan-erbB receptor inhibitor and its potential application for the treatment of breast cancer” (Semin Oncol, 2003).
Counter-ions that a name gives are not always drawn.

Tests used:
Design in all cases: species or system Homo sapiens
[1] = Inhibition of purified CDK2/Cyclin A (unknown origin)
[2] = Inhibition of purified PDGFR (unknown origin)
[3] = Inhibition of purified FGFR (unknown origin)

Measured: IC50

C=CC(=O)Nc1cc2c(Nc3ccc(F)c(Cl)c3)ncnc2cc1OCCCN1CCOCC1 [CANERTINIB DIHYDROCHLORIDE]
> 50 µM: [1] | [2] | [3]
